Measured values taken from patent publication US20010004643A1, “Pharmaceutical composition with sotalol combination and their use in treatment of cardiac ailments” (priority 1999, published 2001).
Marks after values point to notes of the source that are not given here.

Key:
[1] = system: ouabain induced arrhythmia (VT, VF, mortality); test: Ouabain induced arrhythmia model in guinea pig; format: in vivo; settings: for actual incidence of mortality (value in parenthesis): 60 min; for actual incidence of mortality (value in parenthesis) / actual incidence of VF (value in parenthesis) / actual incidence of VT (value in parenthesis): number of animals of the group; for % INCIDENCE OF MORTALITY: mortality at 60 min; for deaths due to conduction block (60 min), actual incidence (value in parenthesis) / deaths due to tachyarrhythmia (60 min), actual incidence (value in parenthesis): number of animals; for % INCIDENCE OF VF / % INCIDENCE OF VT: ouabain 240 μg/kg in three doses, observed one hour; for DEATHS DUE TO CONDUCTION BLOCK (60 MIN) Percentage / DEATHS DUE TO TACHYARRHYTHMIA (60 MIN) Percentage: percentage deaths out of total mortality
Source text: Method: Guinea pigs (Dunken Hartley) of either sex weighing between 400 and 500 g were used for the study. The animals were anesthetized with urethane (1.25 g/kg. i.p.). The left common carotid artery and left jugular vein were cannulated for arterial blood pressure monitoring and intravenous access respectively. Lead II electrocardiogram, arterial blood pressure, mean arterial blood pressure (MABP), heart rate were monitored throughout the experiment.
After initial surgical preparations and allowing 30 minutes for the animal to stabilise the first dose of ouabain (90 μg/kg) was administered over a period of one minute. After the interval of thirty minutes, second dose of ouabain (60 μg/kg) was administered over a period of one minute. One minute after this dose, 0.5 ml saline (in control experiments) was administered over a period of one minute. After an interval of 10 minutes a third dose of ouabain (90 μg/kg) was administered over a period of one minute. […] The test compounds were administered to animals in test group in place of saline to evaluate their antiarrhythmic potential. From the ECG recordings, the incidence of VT, VF and mortality were recorded. The doses of ratios of sotalol isomers studied were 0.1, 0.5 and 2.5 mg/kg.
Interpretation of ECG recordings: Minor disturbance in rhythm was not considered while evaluating ventricular tachyarrhythmias. A run of more than 3 ventricular ectopic beats having wide QRS complexes associated with partial haemodynamic collapse was considered as Ventricular Tachycardia (VT). Total morphological irregularity of repetitive complexes for at least six cycles associated with complete haemodynamic collapse was considered as Ventricular Fibrillation (VF). Successful arrhythmia protection was defined as no occurrence of VT and VF from the injection of saline/test drug till the end of the experiment.
Statistics: Chi square test with continuity correction at 95% confidence limit was applied to find out the statistical significance between control and test groups for incidence of VT, VF and mortality. Whenever, any of the value in a cell was less than 5, Fischer's exact probability test was used.
Results: Different ratios of sotalol in the dose range from 0.02 mg/kg to 12.5 mg/kg were studied in individual groups of animals. In all 18 groups were studied and at least 6 animals were used in each group. In control animals ouabain 240 μg/kg in three divided doses induced reproducible ventricular tachyarrhythmias in guinea pigs. It was observed that ventricular arrhythmias appeared after the administration of the third dose. Guinea pigs which responded early i.e. before or within 1 min. of administration of the second dose, were considered early responders and were not included in the study. […] In the study, control experiments were carried out randomly interspersed in test groups. Among the 42 control animals the incidence of VT was 81%, incidence of VF was 71.4% and the incidence of mortality at 60 minutes was 61.9%.

[2] = system: beta adrenergic blockade, isolated right auricle preparation of rabbit; test: Beta blocking potency (pA2 against isoprenaline) in isolated rabbit right auricle; settings: isoprenaline chronotropic response, Schild's plot, listed as 3:1
Experimental: Estimation of the beta blockade of various ratios of d- and l- isomers of sotalol was carried out in the isolated right auricle preparation of rabbit. The spontaneously beating right atrium was dissected and mounted in a 20 ml tissue bath. The resting tension on the atria was set at 1 g. The contractions were recorded using a force displacement transducer. The spontaneous contractions of the right atria were recorded isometrically and the heart rate was obtained as a derived parameter using a ratemeter that gave the output in beats per minute. Six different ratios of d and l isomers were investigated (1:1, 2:1, 3:1, 4:1, 5:1 and 1:0). Dose-response-curves (DRC) for isoprenaline in the isolated atria, using the chronotropic response were determined by cumulative addition of isoprenaline. The pA2 values of each of the ratios were estimated using the classical Schild's plot (Schild, 1957) and the values are shown in Table 1.

## CC(C)NCC(O)c1ccc(NS(C)(=O)=O)cc1 (stereo not shown) [3:1 RATIO, N-[4-[1-hydroxy-2-[(1-methylethyl)amino]ethyl]phenyl] methane sulfonamide]
[1]; 0.1 mg/kg
  actual incidence of mortality (value in parenthesis): (2)
  % INCIDENCE OF MORTALITY: 33.3%
  deaths due to conduction block (60 min), actual incidence (value in parenthesis): (1)
  deaths due to tachyarrhythmia (60 min), actual incidence (value in parenthesis): (1)
  actual incidence of VF (value in parenthesis): (4)
  actual incidence of VT (value in parenthesis): (4)
  % INCIDENCE OF VF: 66.6%
  % INCIDENCE OF VT: 66.6%
  DEATHS DUE TO CONDUCTION BLOCK (60 MIN) Percentage: 50.0%
  DEATHS DUE TO TACHYARRHYTHMIA (60 MIN) Percentage: 50.0%
[1]; 0.5 mg/kg
  actual incidence of mortality (value in parenthesis): (3)
  % INCIDENCE OF MORTALITY: 37.5%
  deaths due to conduction block (60 min), actual incidence (value in parenthesis): (3)
  deaths due to tachyarrhythmia (60 min), actual incidence (value in parenthesis): (0)*
  actual incidence of VF (value in parenthesis): (2)
  actual incidence of VT (value in parenthesis): (3)*
  % INCIDENCE OF VF: 25.0%
  % INCIDENCE OF VT: 37.5%
  DEATHS DUE TO CONDUCTION BLOCK (60 MIN) Percentage: 100.0%
  DEATHS DUE TO TACHYARRHYTHMIA (60 MIN) Percentage: 00.0%
[1]; 0.5 mg/kg, listed as 3:1 ratio (d:l)
  protection against ouabain induced VT: showed protection
[1]; 2.5 mg/kg
  protection against arrhythmias (VT and VF): protected
  protection from deaths due to tachyarrhythmias: completely protected
  actual incidence of mortality (value in parenthesis): (2)
  % INCIDENCE OF MORTALITY: 33.3%
  deaths due to conduction block (60 min), actual incidence (value in parenthesis): (2)
  deaths due to tachyarrhythmia (60 min), actual incidence (value in parenthesis): (0)
  actual incidence of VF (value in parenthesis): (0)*
  actual incidence of VT (value in parenthesis): (0)*
  % INCIDENCE OF VF: 00.0%
  % INCIDENCE OF VT: 00.0%
  DEATHS DUE TO CONDUCTION BLOCK (60 MIN) Percentage: 100.0%
  DEATHS DUE TO TACHYARRHYTHMIA (60 MIN) Percentage: 00.0%
[1]; 2.5 mg/kg, listed as 3:1
  protection against arrhythmias (VT and VF): complete protection
[1]; 2.5 mg/kg, listed as 3:1 ratio
  % INCIDENCE OF MORTALITY: 33.3%
[1]; 0.5 and 2.5 mg/kg dose
  mortality: low
[1]; guinea pig, in vivo, listed as 3:1 ratio (d:l)
  dose at which complete protection against VT was observed: 2.5 mg/kg
[1]; no dose stated
  cause of deaths: due to conduction abnormalities
  mortality compared with control groups: less than that of control groups
[2]
  pA2 Mean: 6.15
